According to US9156801B2, “2-substituted oleanolic acid derivative, method preparing for same, and application thereof” (HANGZHOU BENSHENG PHARMACEUTICAL CO., LTD., priority 2011, dated 2015):
≈ marks a conversion by molar mass, not a printed value.

What was measured:
PC-3 cell line = experiment: solid tumor cell growth inhibition, MTT; assay type: cell-based; details: Homo sapiens; for IC50: PC-3, 72 h; for inhibition at 16 µg/mL: PC-3, 16 μg/mL compound, 72 h, read-out: IR (cell proliferation inhibition rate)
Procedure, shortened: (§1)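 MTT read-out of relative living-cell number after a 72 h compound exposure at 37° C, 5% CO2. Cells had been plated at 4000 per well in DMEM high glucose containing 10% fetal bovine serum and allowed 24 h before dosing. Inhibition is referenced to untreated wells set at 0%.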

MG-63 cell line = experiment: solid tumor cell growth inhibition, MTT; assay type: cell-based; details: Homo sapiens; for IC50: MG-63, 72 h; for inhibition at 16 µg/mL: MG-63, 16 μg/mL compound, 72 h, read-out: IR (cell proliferation inhibition rate)
Procedure, shortened: as §1

CNE cell line = experiment: solid tumor cell growth inhibition, MTT; assay type: cell-based; details: Homo sapiens, 72 h; for inhibition at 16 µg/mL: 16 μg/mL compound, read-out: IR (cell proliferation inhibition rate)
Procedure, shortened: as §1

A549 cell line = experiment: solid tumor cell growth inhibition, MTT; assay type: cell-based; details: Homo sapiens; for IC50: A549, 72 h; for inhibition at 16 µg/mL: A549, 16 μg/mL compound, 72 h, read-out: IR (cell proliferation inhibition rate)
Procedure, shortened: as §1

PANC-1 cell line = experiment: solid tumor cell growth inhibition, MTT; assay type: cell-based; details: Homo sapiens; for IC50: PANC-1, 72 h; for inhibition at 16 µg/mL: PANC-1, 16 μg/mL compound, 72 h, read-out: IR (cell proliferation inhibition rate)
Procedure, shortened: as §1

RKO cell line = experiment: solid tumor cell growth inhibition, MTT; assay type: cell-based; details: Homo sapiens, 72 h; for inhibition at 16 µg/mL: 16 μg/mL compound, read-out: IR (cell proliferation inhibition rate)
Procedure, shortened: as §1

Hela cell line = experiment: solid tumor cell growth inhibition, MTT; assay type: cell-based; details: Homo sapiens, 72 h; for IC50: HeLa; for inhibition at 16 µg/mL: Hela, 16 μg/mL compound, read-out: IR (cell proliferation inhibition rate)
Procedure, shortened: as §1

SK-OV-3 cell line = experiment: solid tumor cell growth inhibition, MTT; assay type: cell-based; details: Homo sapiens; for IC50: SK-OV-3, 72 h; for inhibition at 16 µg/mL: SK-OV-3, 16 μg/mL compound, 72 h, read-out: IR (cell proliferation inhibition rate)
Procedure, shortened: as §1

CaES-17 cell line = experiment: solid tumor cell growth inhibition, MTT; assay type: cell-based; details: Homo sapiens, CaEs17; for inhibition at 16 µg/mL: CaES-17, 16 μg/mL compound, 72 h, read-out: IR (cell proliferation inhibition rate); for IC50: CaES-17, 72 h
Procedure, shortened: as §1

Becap37 cell line = experiment: solid tumor cell growth inhibition, MTT; assay type: cell-based; details: Homo sapiens; for inhibition at 16 µg/mL: Becap37, 16 μg/mL compound, 72 h, read-out: IR (cell proliferation inhibition rate); for IC50: Becap37, 72 h
Procedure, shortened: as §1

MGC 803 cell line = experiment: solid tumor cell growth inhibition, MTT; assay type: cell-based; details: Homo sapiens; for inhibition at 16 µg/mL: MGC 803, 16 μg/mL compound, 72 h, read-out: IR (cell proliferation inhibition rate); for IC50: MGC 803, 72 h
Procedure, shortened: as §1

Hep-2 cell line = experiment: solid tumor cell growth inhibition, MTT; assay type: cell-based; details: Homo sapiens; for IC50: HEp-2, 72 h; for inhibition at 16 µg/mL: Hep-2, 16 μg/mL compound, 72 h, read-out: IR (cell proliferation inhibition rate)
Procedure, shortened: as §1

U87 MG cell line = experiment: solid tumor cell growth inhibition, MTT; assay type: cell-based; details: Homo sapiens, U-87 MG, 72 h; for inhibition at 16 µg/mL: 16 μg/mL compound, read-out: IR (cell proliferation inhibition rate)
Procedure, shortened: as §1

Hep G2 cell line = experiment: solid tumor cell growth inhibition, MTT; assay type: cell-based, human; details: Homo sapiens; for inhibition at 16 µg/mL: HepG2, 72 h, Hep G2, 16 μg/mL compound, 72 h, read-out: IR (cell proliferation inhibition rate); for IC50: HepG2, Hep G2, 72 h
Procedure, shortened: as §1

NB4 cell line = experiment: leukemia cell growth inhibition, MTT; assay type: cell-based; details: Homo sapiens, NB-4; for inhibition at 16 µg/mL: NB4, 16 μg/mL compound, 72 h, read-out: IR (cell proliferation inhibition rate); for IC50: NB4, 72 h
Procedure, shortened: (§2)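 Proliferation inhibition rates derive from MTT-measured viability, normalised so the compound-free group equals 0%. Exposure lasted 72 hours at 37° C, 5% CO2, starting from 6000 cells/well in serum-supplemented (10% FBS) 1640 medium.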

K562/adr cell line = experiment: leukemia cell growth inhibition, MTT; assay type: cell-based; details: Homo sapiens, 72 h; for IC50: K562/Adr; for inhibition at 16 µg/mL: K562/adr, 16 μg/mL compound, read-out: IR (cell proliferation inhibition rate)
Procedure, shortened: as §2

Jurkat cell line = experiment: leukemia cell growth inhibition, MTT; assay type: cell-based; details: Homo sapiens, 72 h; for inhibition at 16 µg/mL: 16 μg/mL compound, read-out: IR (cell proliferation inhibition rate)
Procedure, shortened: as §2

Kasumi-1 cell line = experiment: leukemia cell growth inhibition, MTT; assay type: cell-based; details: Homo sapiens; for inhibition at 16 µg/mL: Kasumi-1, 16 μg/mL compound, 72 h, read-out: IR (cell proliferation inhibition rate); for IC50: Kasumi-1, 72 h
Procedure, shortened: as §2

H9 cell line = experiment: leukemia cell growth inhibition, MTT; assay type: cell-based; details: Homo sapiens; for IC50: H9, 72 h; for inhibition at 16 µg/mL: H9, 16 μg/mL compound, 72 h, read-out: IR (cell proliferation inhibition rate)
Procedure, shortened: as §2

RPMI8226 cell line = experiment: multiple myeloma cell growth inhibition, MTT; assay type: cell-based; details: Homo sapiens, RPMI-8226; for inhibition at 16 µg/mL: RPMI8226, 16 μg/mL compound, 72 h, read-out: IR (cell proliferation inhibition rate); for IC50: RPMI8226, 72 h
Procedure, shortened: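 Viability was measured by MTT after a 72 h compound exposure (37° C, 5% CO2) of RPMI8226 myeloma cells seeded at 6000 per well in 1640 medium with 10% fetal bovine serum. Growth inhibition was expressed relative to untreated cells, taken as 0%.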

SMILES	IC50 (PC-3 cell line)	inhibition at 16 µg/mL (PC-3 cell line)	IC50 (MG-63 cell line)	inhibition at 16 µg/mL (MG-63 cell line)	inhibition at 16 µg/mL (CNE cell line)	IC50 (CNE cell line)	IC50 (A549 cell line)	inhibition at 16 µg/mL (A549 cell line)	IC50 (PANC-1 cell line)	inhibition at 16 µg/mL (PANC-1 cell line)	inhibition at 16 µg/mL (RKO cell line)	IC50 (RKO cell line)	IC50 (Hela cell line)	inhibition at 16 µg/mL (Hela cell line)	IC50 (SK-OV-3 cell line)	inhibition at 16 µg/mL (SK-OV-3 cell line)	inhibition at 16 µg/mL (CaES-17 cell line)	IC50 (CaES-17 cell line)	inhibition at 16 µg/mL (Becap37 cell line)	IC50 (Becap37 cell line)	also measured
COC(=O)[C@]12CCC(C)(C)CC1C1=CCC3[C@@]4(C)CC(C(=O)NCCCN5CCN(C)CC5)C(=O)C(C)(C)C4CC[C@@]3(C)[C@]1(C)CC2 (stereo partly drawn) [BS-OA-078]	6.82 µg/mL (≈ 10.5 µM)	98.4%	5.7 µg/mL (≈ 8.74 µM)	100%	99.7%	5.01 µg/mL (≈ 7.68 µM)	3.58 µg/mL (≈ 5.49 µM)	97.6%	9.69 µg/mL (≈ 14.9 µM)	100%	97.5%	3.91 µg/mL (≈ 6 µM)	4.54 µg/mL (≈ 6.96 µM)	99.4%	5.49 µg/mL (≈ 8.42 µM)	98.9%	99.4%	3.61 µg/mL (≈ 5.54 µM)	98.1%	6.23 µg/mL (≈ 9.56 µM)	inhibition at 16 µg/mL (MGC 803 cell line): 99.5%; IC50 (MGC 803 cell line): 5.26 µg/mL (≈ 8.07 µM); IC50 (Hep-2 cell line): 8.25 µg/mL (≈ 12.7 µM); inhibition at 16 µg/mL (Hep-2 cell line): 97.3%; inhibition at 16 µg/mL (U87 MG cell line): 98.6%; IC50 (U87 MG cell line): 3 µg/mL (≈ 4.6 µM); inhibition at 16 µg/mL (Hep G2 cell line): 99.7%; IC50 (Hep G2 cell line): 4.77 µg/mL (≈ 7.32 µM); inhibition at 16 µg/mL (NB4 cell line): 100%; IC50 (NB4 cell line): 4.59 µg/mL (≈ 7.04 µM); IC50 (K562/adr cell line): 0.89 µg/mL (≈ 1.37 µM); inhibition at 16 µg/mL (K562/adr cell line): 99.1%; inhibition at 16 µg/mL (Jurkat cell line): 98.3%; IC50 (Jurkat cell line): 2.5 µg/mL (≈ 3.83 µM); inhibition at 16 µg/mL (Kasumi-1 cell line): 97.9%; IC50 (Kasumi-1 cell line): 5.67 µg/mL (≈ 8.7 µM); IC50 (H9 cell line): 4.33 µg/mL (≈ 6.64 µM); inhibition at 16 µg/mL (H9 cell line): 97.5%; inhibition at 16 µg/mL (RPMI8226 cell line): 99.1%; IC50 (RPMI8226 cell line): 0.74 µg/mL (≈ 1.14 µM)
CCN(CC)CCCNC(=O)C1C[C@@]2(C)C(CC[C@]3(C)C2CC=C2C4CC(C)(C)CC[C@]4(C(=O)O)CC[C@]23C)C(C)(C)C1=O (stereo partly drawn) [BS-OA-108]	> 16 µg/mL	-8.2%	> 16 µg/mL	47.4%	42.7%	> 16 µg/mL	> 16 µg/mL	27.5%	> 16 µg/mL	21.6%	63.2%	14.3 µg/mL (≈ 23.4 µM)	> 16 µg/mL	43%	> 16 µg/mL	-15.6%	32%	> 16 µg/mL	38.4%	> 16 µg/mL	inhibition at 16 µg/mL (MGC 803 cell line): 13.1%; IC50 (MGC 803 cell line): > 16 µg/mL; IC50 (Hep-2 cell line): > 16 µg/mL; inhibition at 16 µg/mL (Hep-2 cell line): 22.7%; inhibition at 16 µg/mL (U87 MG cell line): 18.5%; IC50 (U87 MG cell line): > 16 µg/mL; inhibition at 16 µg/mL (Hep G2 cell line): 42.3%; IC50 (Hep G2 cell line): > 16 µg/mL; inhibition at 16 µg/mL (NB4 cell line): 92.4%; IC50 (NB4 cell line): 6.86 µg/mL (≈ 11.2 µM); IC50 (K562/adr cell line): 4.83 µg/mL (≈ 7.91 µM); inhibition at 16 µg/mL (K562/adr cell line): 96.1%; inhibition at 16 µg/mL (Jurkat cell line): 66.5%; IC50 (Jurkat cell line): 12.6 µg/mL (≈ 20.6 µM); inhibition at 16 µg/mL (Kasumi-1 cell line): 74.5%; IC50 (Kasumi-1 cell line): 10.2 µg/mL (≈ 16.6 µM); IC50 (H9 cell line): 15.3 µg/mL (≈ 25 µM); inhibition at 16 µg/mL (H9 cell line): 57.7%; inhibition at 16 µg/mL (RPMI8226 cell line): 97.3%; IC50 (RPMI8226 cell line): 6.4 µg/mL (≈ 10.5 µM)
COC(=O)[C@]12CCC(C)(C)CC1C1=CCC3[C@@]4(C)CC(C(=O)NCCC(C)C)C(=O)C(C)(C)C4CC[C@@]3(C)[C@]1(C)CC2 (stereo partly drawn) [BS-OA-031]	> 16 µg/mL	9.8%	> 16 µg/mL	-1.3%	15.8%	> 16 µg/mL	> 16 µg/mL	-6.3%	> 16 µg/mL	-1.4%	-12.1%	> 16 µg/mL	> 16 µg/mL	2.5%	> 16 µg/mL	18%	-4.7%	> 16 µg/mL	-5.8%	> 16 µg/mL	inhibition at 16 µg/mL (MGC 803 cell line): 0.8%; IC50 (MGC 803 cell line): > 16 µg/mL; IC50 (Hep-2 cell line): > 16 µg/mL; inhibition at 16 µg/mL (Hep-2 cell line): 10.5%; inhibition at 16 µg/mL (U87 MG cell line): 5.3%; IC50 (U87 MG cell line): > 16 µg/mL; inhibition at 16 µg/mL (Hep G2 cell line): 6.7%; IC50 (Hep G2 cell line): > 16 µg/mL; inhibition at 16 µg/mL (NB4 cell line): -0.9%; IC50 (NB4 cell line): > 16 µg/mL; IC50 (K562/adr cell line): 12.1 µg/mL (≈ 20.7 µM); inhibition at 16 µg/mL (K562/adr cell line): 62.2%; inhibition at 16 µg/mL (Jurkat cell line): -28.5%; IC50 (Jurkat cell line): > 16 µg/mL; inhibition at 16 µg/mL (Kasumi-1 cell line): 10%; IC50 (Kasumi-1 cell line): > 16 µg/mL; IC50 (H9 cell line): > 16 µg/mL; inhibition at 16 µg/mL (H9 cell line): 31.9%; inhibition at 16 µg/mL (RPMI8226 cell line): 4.4%; IC50 (RPMI8226 cell line): > 16 µg/mL
